Assay results from article PMC10987480, “Biological and mutational analyses of CXCR4–antagonist interactions and design of new antagonistic analogs” (Bioscience Reports, 2023).
Positions of bridges follow the written chain, without caps; N, C: chain ends. Non-standard residues stand in square brackets, D forms with d. Residues, ends and D or L forms follow the SMILES beside them. Chains are numbered I, II in the order given. 2Nal = N[C@@H](Cc1ccc2ccccc2c1)C(=O)O; Lys(iPr) = CC(C)NCCCC[C@H](N)C(=O)O

What was measured:
CXCR4 H203A = target: T1, CXCR4 H203A (Homo sapiens, UniProt P61073, H203A); experiment: Competitive binding to CXCR4 mutant H203A (12G5, CHO cells); settings: TM5, class of reduction vs wild-type CXCR4, 12G5 competition, averages of at least three independent experiments
T1 construct: expressed in transfected cells
T1 sequence (P61073 whole entry H203A): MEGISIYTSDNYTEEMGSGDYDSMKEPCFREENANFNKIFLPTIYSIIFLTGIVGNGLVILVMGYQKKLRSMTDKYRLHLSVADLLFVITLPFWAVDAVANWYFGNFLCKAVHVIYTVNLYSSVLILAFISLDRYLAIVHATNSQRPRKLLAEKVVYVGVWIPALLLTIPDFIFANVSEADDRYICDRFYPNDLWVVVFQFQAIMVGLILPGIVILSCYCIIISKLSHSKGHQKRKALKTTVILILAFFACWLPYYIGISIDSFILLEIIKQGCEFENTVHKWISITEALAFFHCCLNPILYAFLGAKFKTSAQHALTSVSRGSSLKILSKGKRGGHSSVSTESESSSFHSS
Procedure: (§1) Plasmid pcDNA3-CXCR4 and mutated pcDNA3-CXCR4 were extracted and transfected into CHO cells using Lipofectamine 2000 according to the manufacturer’s guidelines. The selective medium containing G418 at a concentration of 1.2 mg/ml was applied to isolate stably transfected cells. CHO cells expressing wild-type CXCR4 and mutant CXCR4 were obtained using fluorescence-activated cell sorting (FACS).
(§2) All of the CXCR4 mutants were prepared using PCR technology. Briefly, pairs of asymmetrical primers containing the desired amino acid mutations (Supplementary Tables S1 and S2), each complementary to opposite strands of the pcDNA3–CXCR4, were designed for amplification by Q5® High-Fidelity DNA polymerase and the generation of mutated constructs. The methylated pcDNA3–CXCR4 templates were digested by DpnI. The mutated pcDNA3–CXCR4 was transformed into competent E. coli TOP10 for long-term storage and amplification.
(§3) The procedure for the CXCR4 competitive binding experiments was published previously. Briefly, CXCR4 antibody 12G5 (250 ng/ml) was incubated with 5 × 10^5 cells and varying concentrations of unlabeled compounds in a final volume of 100 μl of assay buffer (PBS with 0.5% BSA and 0.05% NaN3) in 96-well plates for 40 min on ice, after being washed with assay buffer once. The cells were incubated with FITC-conjugated second antibody IgG for 30 min on ice, then washed with assay buffer three times. The fluorescence intensity was measured for excitation at 485 nm and emission at 535 nm using multimode plate reader (PerkinElmer). The IC50 values were calculated using graphpad Prism 7. Experiments were performed at least three times.

CXCR4 W252A = target: T2, CXCR4 W252A (Homo sapiens, UniProt P61073, W252A); experiment: Competitive binding to CXCR4 mutant W252A (12G5, CHO cells); settings: TM6, class of reduction vs wild-type CXCR4, 12G5 competition, averages of at least three independent experiments
T2 construct: expressed in transfected cells
T2 sequence (P61073 whole entry W252A): as the sequence (P61073 whole entry H203A) above, with A203H, W252A counted along it
Procedure: as §1, §2, §3

CXCR4 D97A = target: T3, CXCR4 D97A (Homo sapiens, UniProt P61073, D97A); experiment: Competitive binding to CXCR4 mutant D97A (12G5, CHO cells); settings: TM2, class of reduction vs wild-type CXCR4, 12G5 competition, averages of at least three independent experiments
T3 construct: expressed in transfected cells
T3 sequence (P61073 whole entry D97A): as the sequence (P61073 whole entry H203A) above, with D97A, A203H counted along it
Procedure: as §1, §2, §3

CXCR4 E288Q = target: T4, CXCR4 E288Q (Homo sapiens, UniProt P61073, E288Q); experiment: Competitive binding to CXCR4 mutant E288Q (12G5, CHO cells); settings: TM7, class of reduction vs wild-type CXCR4, 12G5 competition, averages of at least three independent experiments
T4 construct: expressed in transfected cells
T4 sequence (P61073 whole entry E288Q): as the sequence (P61073 whole entry H203A) above, with A203H, E288Q counted along it
Procedure: as §1, §2, §3

CXCR4 D171A = target: T5, CXCR4 D171A (Homo sapiens, UniProt P61073, D171A); experiment: Competitive binding to CXCR4 mutant D171A (12G5, CHO cells); settings: TM4, class of reduction vs wild-type CXCR4, 12G5 competition, averages of at least three independent experiments
T5 construct: expressed in transfected cells
T5 sequence (P61073 whole entry D171A): as the sequence (P61073 whole entry H203A) above, with D171A, A203H counted along it
Procedure: as §1, §2, §3

CXCR4 H113A = target: T6, CXCR4 H113A (Homo sapiens, UniProt P61073, H113A); experiment: Competitive binding to CXCR4 mutant H113A (12G5, CHO cells); settings: TM3, class of reduction vs wild-type CXCR4, 12G5 competition, averages of at least three independent experiments
T6 construct: expressed in transfected cells
T6 sequence (P61073 whole entry H113A): as the sequence (P61073 whole entry H203A) above, with H113A, A203H counted along it
Procedure: as §1, §2, §3

CXCR4 T117A = target: T7, CXCR4 T117A (Homo sapiens, UniProt P61073, T117A); experiment: Competitive binding to CXCR4 mutant T117A (12G5, CHO cells); settings: TM3, class of reduction vs wild-type CXCR4, 12G5 competition, averages of at least three independent experiments
T7 construct: expressed in transfected cells
T7 sequence (P61073 whole entry T117A): as the sequence (P61073 whole entry H203A) above, with T117A, A203H counted along it
Procedure: as §1, §2, §3

CXCR4 D262N = target: T8, CXCR4 D262N (Homo sapiens, UniProt P61073, D262N); experiment: Competitive binding to CXCR4 mutant D262N (12G5, CHO cells); settings: TM6, class of reduction vs wild-type CXCR4, 12G5 competition, averages of at least three independent experiments
T8 construct: expressed in transfected cells
T8 sequence (P61073 whole entry D262N): as the sequence (P61073 whole entry H203A) above, with A203H, D262N counted along it
Procedure: as §1, §2, §3

CXCR4 Q200A = target: T9, CXCR4 Q200A (Homo sapiens, UniProt P61073, Q200A); experiment: Competitive binding to CXCR4 mutant Q200A (12G5, CHO cells); set-up: key to the marks not given beside the values; settings: TM5, class of reduction vs wild-type CXCR4, 12G5 competition, averages of at least three independent experiments
T9 construct: expressed in transfected cells
T9 sequence (P61073 whole entry Q200A): as the sequence (P61073 whole entry H203A) above, with Q200A, A203H counted along it
Procedure: as §1, §2, §3

CXCR4 E288A = target: T10, CXCR4 E288A (Homo sapiens, UniProt P61073, E288A); experiment: Competitive binding to CXCR4 mutant E288A (12G5, CHO cells); settings: TM7, class of reduction vs wild-type CXCR4, 12G5 competition, averages of at least three independent experiments
T10 construct: expressed in transfected cells
T10 sequence (P61073 whole entry E288A): as the sequence (P61073 whole entry H203A) above, with A203H, E288A counted along it
Procedure: as §1, §2, §3

CXCR4 E288D = target: T11, CXCR4 E288D (Homo sapiens, UniProt P61073, E288D); experiment: Competitive binding to CXCR4 mutant E288D (12G5, CHO cells); settings: TM7, class of reduction vs wild-type CXCR4, 12G5 competition, averages of at least three independent experiments
T11 construct: expressed in transfected cells
T11 sequence (P61073 whole entry E288D): as the sequence (P61073 whole entry H203A) above, with A203H, E288D counted along it
Procedure: as §1, §2, §3

CXCR4 H281A = target: T12, CXCR4 H281A (Homo sapiens, UniProt P61073, H281A); experiment: Competitive binding to CXCR4 mutant H281A (12G5, CHO cells); settings: TM7, class of reduction vs wild-type CXCR4, 12G5 competition, averages of at least three independent experiments
T12 construct: expressed in transfected cells
T12 sequence (P61073 whole entry H281A): as the sequence (P61073 whole entry H203A) above, with A203H, H281A counted along it
Procedure: as §1, §2, §3

CXCR4 I259A = target: T13, CXCR4 I259A (Homo sapiens, UniProt P61073, I259A); experiment: Competitive binding to CXCR4 mutant I259A (12G5, CHO cells); set-up: key to the marks not given beside the values; settings: TM6, class of reduction vs wild-type CXCR4, 12G5 competition, averages of at least three independent experiments
T13 construct: expressed in transfected cells
T13 sequence (P61073 whole entry I259A): as the sequence (P61073 whole entry H203A) above, with A203H, I259A counted along it
Procedure: as §1, §2, §3

CXCR4 I284A = target: T14, CXCR4 I284A (Homo sapiens, UniProt P61073, I284A); experiment: Competitive binding to CXCR4 mutant I284A (12G5, CHO cells); settings: TM7, class of reduction vs wild-type CXCR4, 12G5 competition, averages of at least three independent experiments
T14 construct: expressed in transfected cells
T14 sequence (P61073 whole entry I284A): as the sequence (P61073 whole entry H203A) above, with A203H, I284A counted along it
Procedure: as §1, §2, §3

CXCR4 N119A = target: T15, CXCR4 N119A (Homo sapiens, UniProt P61073, N119A); experiment: Competitive binding to CXCR4 mutant N119A (12G5, CHO cells); settings: TM3, class of reduction vs wild-type CXCR4, 12G5 competition, averages of at least three independent experiments
T15 construct: expressed in transfected cells
T15 sequence (P61073 whole entry N119A): as the sequence (P61073 whole entry H203A) above, with N119A, A203H counted along it
Procedure: as §1, §2, §3

CXCR4 = settings: cited from earlier work
Excerpt: To understand the receptor–ligand recognition mechanism involving CXCR4 and its antagonists, here in this study we conducted a series of comparative analyses of the biological activities and CXCR4 binding sites of eleven known CXCR4 antagonists, including the three mentioned above, using cell-based bioassays, CXCR4 site-directed mutagenesis and computer-aided molecular modeling. These antagonists studied here were chosen from different representative structural types including both D-peptides (i.e., HC4319, DV1, DV1 dimer, and DV3) and a representative counterpart L-peptide (i.e., V1) derived ...

CC(C)C[C@@H](N)C(=O)NCC(=O)N[C@H](C)C(=O)N[C@H](CO)C(=O)N[C@H](Cc1c[nH]c2ccccc12)C(=O)N[C@H](Cc1c[nH]cn1)C(=O)N[C@H](CCCNC(=N)N)C(=O)N1CCC[C@@H]1C(=O)N[C@H](CC(=O)O)C(=O)N[C@H](CCCCN)C(=O)NCCCC[C@@H](NC(=O)[C@H]1CCCN1C(=O)[C@@H](CC(C)C)NC(=O)[C@H]1CCCN1C(=O)[C@@H](CCCNC(=N)N)NC(=O)[C@@H](CCCCN)NC(=O)[C@@H](CCC(N)=O)NC(=O)[C@@H](Cc1ccc(O)cc1)NC(=O)CNC(=O)[C@@H](CC(C)C)NC(=O)[C@@H](CS)NC(=O)[C@@H](CS)NC(=O)[C@@H](CCCCN)NC(=O)[C@@H](CC(=O)O)NC(=O)[C@H]1CCCN1C(=O)[C@@H](CCCNC(=N)N)NC(=O)[C@@H](Cc1c[nH]cn1)NC(=O)[C@@H](Cc1c[nH]c2ccccc12)NC(=O)[C@@H](CO)NC(=O)[C@@H](C)NC(=O)CNC(=O)[C@H](N)CC(C)C)C(=O)O [HC4319] (I: H-[dL]G[dA][dS][dW][dH][dR][dP][dD][dK][dC][dC][dL]G[dY][dQ][dK][dR][dP][dL][dP][dK]-OH / II: H-[dL]G[dA][dS][dW][dH][dR][dP][dD][dK]; amide I:22-II:C; N-terminus and C-terminus assumed)
Competitive receptor binding activity, CXCR4 H203A (CXCR4 H203A): +++
Competitive receptor binding activity, CXCR4 W252A (CXCR4 W252A): +++
Competitive receptor binding activity, CXCR4 D97A (CXCR4 D97A): ++ (10–29% reduction compared with wild-type CXCR4)
Competitive receptor binding activity, CXCR4 E288Q (CXCR4 E288Q): ++ (10–29% reduction compared with wild-type CXCR4)
Competitive receptor binding activity, CXCR4 D171A (CXCR4 D171A): +++
Competitive receptor binding activity, CXCR4 H113A (CXCR4 H113A): ++ (10–29% reduction compared with wild-type CXCR4)
Competitive receptor binding activity, CXCR4 T117A (CXCR4 T117A): +++
Competitive receptor binding activity, CXCR4 D262N (CXCR4 D262N): ++ (10–29% reduction compared with wild-type CXCR4)
Competitive receptor binding activity, CXCR4 Q200A (CXCR4 Q200A): +++
Competitive receptor binding activity, CXCR4 E288A (CXCR4 E288A): + (30–60% reduction compared with wild-type CXCR4)
Competitive receptor binding activity, CXCR4 E288D (CXCR4 E288D): + (30–60% reduction compared with wild-type CXCR4)
Competitive receptor binding activity, CXCR4 H281A (CXCR4 H281A): ++ (10–29% reduction compared with wild-type CXCR4)
Competitive receptor binding activity, CXCR4 I259A (CXCR4 I259A): +++
Competitive receptor binding activity, CXCR4 I284A (CXCR4 I284A): +++

CC(C)NCCCC[C@H](NC(=O)[C@H]1CCC(=O)N[C@@H](Cc2ccccc2)C(=O)N[C@@H](Cc2ccc(O)cc2)C(=O)N[C@@H](CCCCNC(C)C)C(=O)N[C@H](CCCNC(=N)N)C(=O)N[C@@H](Cc2ccc3ccccc3c2)C(=O)NCC(=O)N1)C(N)=O [LY2510924] (FY[Lys(iPr)][dR][2Nal]G[dE][Lys(iPr)]-NH2; lactam N-7 (inferred))
Competitive receptor binding activity, CXCR4 H203A (CXCR4 H203A): + (30–60% reduction compared with wild-type CXCR4)
Competitive receptor binding activity, CXCR4 W252A (CXCR4 W252A): ++ (10–29% reduction compared with wild-type CXCR4)
Competitive receptor binding activity, CXCR4 D97A (CXCR4 D97A): + (30–60% reduction compared with wild-type CXCR4)
Competitive receptor binding activity, CXCR4 H113A (CXCR4 H113A): + (30–60% reduction compared with wild-type CXCR4)
Competitive receptor binding activity, CXCR4 T117A (CXCR4 T117A): + (30–60% reduction compared with wild-type CXCR4)
Competitive receptor binding activity, CXCR4 D262N (CXCR4 D262N): +++
Competitive receptor binding activity, CXCR4 H281A (CXCR4 H281A): ++ (10–29% reduction compared with wild-type CXCR4)
Competitive receptor binding activity, CXCR4 I284A (CXCR4 I284A): ++ (10–29% reduction compared with wild-type CXCR4)
Competitive receptor binding activity, CXCR4 N119A (CXCR4 N119A): + (30–60% reduction compared with wild-type CXCR4)
Binding affinity (in words) (CXCR4): subnanomolar
